Data set [1] in a line: stability of formulation with magnesium stearate. The data set is classed as physicochemical. The conditions noted are these: addition of magnesium stearate in the formulation, under conditions tested.
In data set [2] the test system is healthy male ipratropium-responsive subjects. Description: clinical trial, single escalating inhaled doses, airway conductance (sGaw). It is filed as in vivo, human. The conditions noted are these: for increase in airway conductance (sGaw) versus placebo, significance: all doses (bromide compound 20-350 mcg via Diskus; tiotropium 18 mcg), healthy subjects. From the text: In another clinical trial using a binary mixture of the bromide compound and lactose monohydrate, the safety, tolerability, pharmacodynamics and pharmacokinetics of single escalating doses of the bromide compound (20, 60, 100, 250 and 350 mcg via the Diskus), and tiotropium (18 mcg) in 20 healthy male ipratropium-responsive subjects were compared.

Data set [3] deals with male and female ipratropium-responsive COPD subjects. Description: clinical study, single inhaled doses, FEV1. The data set is classed as in vivo, human. Here is the method: A third clinical study assessed the safety, tolerability, pharmacodynamics and pharmacokinetics of single inhaled doses of the bromide compound (20, 50 and 100 mcg via Diskus), and tiotropium (18 mcg) in 31 male and female ipratropium-responsive COPD subjects.
Mean FEV1 values peaked at 2 hours and decreased consistently to 24 hours for each dose.

Data set [4] deals with M1 and M3 receptors over the M2 receptors. Description: muscarinic receptor subtype selectivity and antagonist character. The data set is classed as binding.
A short description of data set [5]: human clinical trial, bronchodilation and onset of action. It is filed as in vivo.
Data set [6] deals with muscarinic acetylcholine (Ach) receptor. Description: off-rate at the muscarinic acetylcholine receptor. It is filed as binding. From the text: This is known to be predictive of a long duration of action. Therefore, while a twice daily dosing at 10-100 mcg/dose may be used, if the dose is increased, such as to 100-200 mcg/dose, once daily dosing may be a suitable alternative.

Data set [7] concerns isolated human bronchial strips. Description: inhibition of carbachol-induced contraction of isolated human bronchial strips. It is filed as cell-based. The settings on record: for offset half time: 10 nM; for onset half time to 50% inhibition of carbachol-induced contraction: single concentration of 10 nM.

As for `C[N+]1(C)C2CCC1CC(CC(C#N)(c1ccccc1)c1ccccc1)C2` (stereo not drawn) [Compound (I), (Endo)-3-(2-cyano-2,2-diphenyl-ethyl)-8,8-dimethyl-8-azonia-bicyclo[3.2.1]octane], in data set [1], the “stabilization of the product on stability” value was “some improvement in stabilization”.
With `C[N+]1(C)[C@@H]2CC[C@H]1C[C@@H](CC(C#N)(c1ccccc1)c1ccccc1)C2.[Br-]` [bromide compound, (Endo)-3-(2-cyano-2,2-diphenyl-ethyl)-8,8-dimethyl-8-azonia-bicyclo[3.2.1]octane bromide], the “increase in sGaw compared with placebo” value in data set [2] (20 mcg dose, after 24 hours) turned out to be 16%. For the same compound, the “increase in airway conductance (sGaw) versus placebo, significance” value in data set [2] is “statistically significantly greater increases”. For the same compound, the “FEV1 adjusted mean difference versus placebo” value in data set [3] (20 mcg, 12 hours) was 241 mL; in data set [3] (20 mcg, 24 hours) it was 135 mL; in data set [3] (50 mcg, 12 hours), 288 mL; in data set [3] (50 mcg, 24 hours), 136 mL; in data set [3] (100 mcg, 12 hours) it was 305 mL; in data set [3] (100 mcg, 24 hours), “above 200 mL”. For the same compound, in data set [3] (all doses (20, 50, 100 mcg), each time point over 24 hours, COPD subjects), the “Mean FEV1 versus placebo, significance” value is reported as “statistically significantly higher than placebo”. Also, in data set [3] (each dose (20, 50, 100 mcg)), the “time of peak mean FEV1” value is 2 h. The “muscarinic receptor antagonist character” value in data set [4] was “high-affinity, pan-active, competitive and reversible”. Further, in data set [4], the reversibility of antagonism result is “partially reversible antagonist”. Further, the “selectivity for the M1 and M3 receptors over the M2 receptors” value in data set [4] stood at 10 fold. For the same compound, in data set [5] (compared with tiotropium), the “onset of action in human clinical trial” value was “faster onset of action than tiotropium”. Further, in data set [5] (human, in vivo), the “bronchodilator efficacy in human clinical trial” value is given as “effective long-acting anti-muscarinic bronchodilator”. For the same compound, the “off-rate at the muscarinic acetylcholine (Ach) receptor” value in data set [6] is recorded as “slow”. This compound also displayed an offset half time in data set [7] of 195 min. In addition, in data set [7], the “onset half time to 50% inhibition of carbachol-induced contraction” value came out at 25 min.
As for `C[N+]1(C)[C@@H]2C[C@@H](OC(=O)C(O)(c3cccs3)c3cccs3)C[C@H]1[C@@H]1O[C@@H]12` [tiotropium, tiotropium bromide, reference compound], the “increase in airway conductance (sGaw) versus placebo, significance” value in data set [2] is on record as “statistically significantly greater increases”. In data set [7], the offset half time came out at 314 min and the “onset half time to 50% inhibition of carbachol-induced contraction” value is recorded as 10 min.

For the origin of these results see patent publication US20100329996A1, “Novel Combination of Therapeutic Agents” (Glaxo Group Limited, priority 2007, published 2010).
